Assay results from patent US20020002198A1, “Chemical synergy to elevate growth hormone release in vertebrates” (priority 2000, published 2002).

Tests used:
[1] = in vivo; cited from earlier work
GH release [2] = test: Serum GH at 1.5 hours post night time sleep after oral ingestion, antibody capture technique, healthy volunteer; assay type: in vivo, human; conditions: for Augmentation of GH release at 1.5 hours post sleep (in words): oral at night sleep
Method: Measurements of GH release occurring at 1.5 hours post sleep were performed on serum samples from a healthy volunteer. Controls and serum analysis for GH were measured by standard commercially avialable antibody capture technique. Experiments and measurement of results occurred between June and October 2000. Each single night experimental serum collection was separated from any other experiments by 1 week. All determinations represent averaged value of triple determinations. […] Measurements were each performed on serum collected 1.5 hours post night time sleep. Choice of 1.5 hours post sleep represents one complete sleep cycle with slow wave sleep during which GH is released. Oral ingestions of stated substances occurred just before night sleep. The normal range of serum GH at 1.5 hours post sleep is in the 1-10 nanograms per milliliter (ng/ml) range. The variance in measurement precision is given by the second value. All experiments were preceded by a period of 3-4 hours since the last meal.

GH release [3] = conditions: cited from earlier work
[4] = cited from earlier work
[5] = system: mitochondrial maximal energy production; conditions: pharmacological levels, intravenous, aged animals, within an hour or two; cited from earlier work
[6] = oral ingestion, humans; cited from earlier work

For `NCCCCN` [putrescine], the “Toxicity when administered systematically (in words)” value (from here on “Toxicity … (in words)”) [1] is given as “considerably less toxic”.

For `NCCC[C@H](N)C(=O)O` [l-ornithine], the “Augmentation of GH release at 1.5 hours post sleep (in words)” value (GH release [2]) was “absence of effect”.

For `N=C(N)NCCC[C@H](N)C(=O)O` [l-arginine], the “Lowest oral dose that augmented normal night time GH release” value (GH release [3]) is listed as “greater than 3 grams” and the “Elevation of growth hormone secretion (in words)” value (GH release [3]; oral, alone, doses of up to 6 gram at night) is listed as “does not elevate growth hormone secretion”.

In the case of `NCCCNCCCCNCCCN` [spermine], the “Toxicity … (in words)” value [1] is given as “significant toxicity”.

For `NCCCCNCCCN` [spermidine], the “Toxicity … (in words)” value [1] is listed as “considerably less toxic”.

For `CC(=O)O[C@H](CC(=O)[O-])C[N+](C)(C)C` [Acetyl-l-carnitine, acetyl-l-carnitine], the “Measured GH” value (GH release [2]; 500 mg of the single substance alone, oral at sleep, 1.5 hour post sleep serum collection, 3-4 hours after last meal, control […] ± 0.2) is listed as 0.55 ± 0.1 ng/mL, the “Augmentation of GH release at 1.5 hours post sleep (in words)” value (GH release [2]) is listed as “absence of effect” and the “Safety in long human testing (in words)” value ([4]; 2.5-7 grams per day, Alzheimer's disease treatment) is listed as “without reported negative consequences”. For the same compound, the “Toxicity sets in at” value ([4]; comparable to normal nutritional amino acids) was “about 1 % of body weight”, the “Restoration of mitochondrial maximal energy production (in words)” value [5] was “restore mitochondrial maximal energy production to youthful levels” and the “Maximal immediately absorbed dose” value [6] was 500 to 2000 milligrams.
